Read-outs that look alike come from different tables or passages of the source.
Columns and labels:
Format in all cases: in vivo
tomatoes = test: Action on tomatoes (Example 22); details: leaf; for Plant height: 14 days; for Plant height relative: control 100
Experimental: Tomatoes were grown in the greenhouse in glass dishes 11.5 cm in diameter containing a peat substrate which was provided with an adequate supply of nutrients. The active ingredients were sprayed onto the leaves in conventional manner at a plant height of 9 to 12 cm.

Alopecurus myosuroides = test: Herbicidal action (Example 25); details: for pest or weed control at 2000 g/ha / pest or weed control at 4000 g/ha / pest or weed control at 8000 g/ha: Alopecurus myosuroides, read-out: percentage damage; for pest or weed control at 2000 g/ha: 2.0 kg/ha; for pest or weed control at 8000 g/ha: 8.0 kg/ha
Experimental: (§1) Paraffined paper cups having a volume of 170 cm^3 were filled with a sandy loam, and the seeds of the test plants sown therein, separated by species. (The species are also listed below.)
(§2) In the first group, treatment was effected immediately after sowing and before germination of the seeds (preemergence treatment=soil treatment). Shallow sown seeds not completely covered with soil came into contact with the active ingredients. In the second group, the plants were treated postemergence (=leaf treatment) at a growth height of from 2 to 8 cm, depending on the rate of growth and shape of the species concerned. The compounds were suspended or emulsified in water and applied with the aid of fine nozzles. The soil and plants were thoroughly sprinkler irrigated for the duration of the experiment. The cups were placed in the greenhouse and kept in the temperature range 12°-25° C. or 18°-35° C., depending on the temperature requirements of the various species. After 2 to 6 weeks the action was assessed visually on a 0 to 100 scale, 0 denoting no damage and 100 denoting plants not germinated or completely destroyed.

Datura stramonium = test: Herbicidal action (Example 25); details: postemergence
Experimental: as §1, §2

Eleusine indica = test: Herbicidal action (Example 25); details: postemergence
Experimental: as §1, §2

Digitaria sanguinalis = test: Herbicidal action (Example 25); details: postemergence
Experimental: as §1, §2

[1] = post-emergence, postemergence, 4.0 kg/ha
[2] = pre-emergence, preemergence, 4.0 kg/ha

Compound | pest or weed control at 2000 g/ha (Alopecurus myosuroides; post-emergence, postemergence) | pest or weed control at 4000 g/ha (Alopecurus myosuroides; [1]) | pest or weed control at 8000 g/ha (Alopecurus myosuroides; post-emergence, postemergence) | pest or weed control at 2000 g/ha (Alopecurus myosuroides; pre-emergence, preemergence) | pest or weed control at 4000 g/ha (Alopecurus myosuroides; [2]) | pest or weed control at 8000 g/ha (Alopecurus myosuroides; pre-emergence, preemergence) | percentage damage (Datura stramonium; 2.0 kg/ha) | percentage damage (Datura stramonium; 4.0 kg/ha) | percentage damage (Datura stramonium; 8.0 kg/ha) | percentage damage (Eleusine indica; 2.0 kg/ha) | percentage damage (Eleusine indica; 4.0 kg/ha) | percentage damage (Eleusine indica; 8.0 kg/ha) | percentage damage (Digitaria sanguinalis; 2.0 kg/ha) | percentage damage (Digitaria sanguinalis; 4.0 kg/ha) | percentage damage (Digitaria sanguinalis; 8.0 kg/ha) | also measured
Clc1ccc(N2N=NC3C4CC(C5N=NC45)C32)cc1 (stereo not drawn) [drawing 402] |  |  |  |  |  |  |  |  |  |  |  |  |  |  |  | Plant height (tomatoes; 1.5 kg/ha): 24.3 cm; Plant height relative (tomatoes; 1.5 kg/ha): 89.3; Plant height (tomatoes; 3.0 kg/ha): 20.3 cm; Plant height relative (tomatoes; 3.0 kg/ha): 74.6; Plant height (tomatoes; 6.0 kg/ha): 14.0 cm; Plant height relative (tomatoes; 6.0 kg/ha): 51.5
Brc1ccc(N2N=NC3C4CC(C5N=NC45)C32)cc1 (stereo not drawn) [drawing 403] |  |  |  |  |  |  |  |  |  |  |  |  |  |  |  | Plant height (tomatoes; 1.5 kg/ha): 25.0 cm; Plant height relative (tomatoes; 1.5 kg/ha): 91.9; Plant height (tomatoes; 3.0 kg/ha): 22.7 cm; Plant height relative (tomatoes; 3.0 kg/ha): 83.5; Plant height (tomatoes; 6.0 kg/ha): 15.3 cm; Plant height relative (tomatoes; 6.0 kg/ha): 56.2
CC(C)OC(=O)Nc1cccc(Cl)c1 [drawing 423] | 25% | 25% | 30% | 95% | 95% | 98% | 30 percentage damage | 40 percentage damage | 60 percentage damage | 50 percentage damage | 50 percentage damage | 50 percentage damage | 80 percentage damage | 80 percentage damage | 90 percentage damage | 
CN(C)C(=O)Nc1ccc(Oc2ccccc2)cc1 [drawing 424] | 15% | 22% | 38% | 30% | 25% | 25% | 95 percentage damage | 95 percentage damage | 100 percentage damage | 40 percentage damage | 50 percentage damage | 50 percentage damage | 50 percentage damage | 70 percentage damage | 90 percentage damage | 
C=CCN(CC=C)C(=O)CCl [drawing 425] | 28% | 38% | 35% | 68% | 85% | 98% | 10 percentage damage | 20 percentage damage | 60 percentage damage |  |  |  |  |  |  | 
c1ccc(N2N=NC3C4CC(C5N=NC45)C32)cc1 (stereo not drawn) [drawing 429] | 15% | 38% | 45% | 70% |  | 90% | 60 percentage damage | 95 percentage damage | 100 percentage damage | 90 percentage damage | 90 percentage damage | 90 percentage damage | 60 percentage damage | 70 percentage damage | 80 percentage damage | percentage damage (Alopecurus myosuroides; preemergence, 4.0 kg/ha): 75 percentage damage
c1csc(N2N=NC3C4CC(C5N=NC45)C32)n1 (stereo not drawn) [drawing 430] | 32% | 40% | 50% | 70% | 88% | 100% | 50 percentage damage | 60 percentage damage | 65 percentage damage | 60 percentage damage | 60 percentage damage | 70 percentage damage | 60 percentage damage | 60 percentage damage | 80 percentage damage | 

— US4257941A, “Polycyclic nitrogen-containing compounds” (BASF Aktiengesellschaft, priority 1976, dated 1981)
